This note sets out measurements from US20050031537A1, “Multifunctional COX-2 inhibitors” (priority 2002, published 2005).

For test [1], the system named is tcf/lef/β-catenin-mediated promoter activation. The experiment in a line: TOPflash/FOPflash reporter assay for tcf/lef/β-catenin-mediated promoter activation (test (f)). It counts as cell-based, human. Particulars: positive in 184B5, 184B5/HER, HCA7, HCT116, SKBR3 and BT474 cells; 24 h. The source says: Tcf/lef/β-catenin is a transcription factor complex that has been implicated in the regulation of genes involved in carcinogenesis. Increased tcf/lef/β-catenin-mediated gene expression has been linked to pathogenesis of colon cancer. Tcf/lef/β-catenin is described in Barker, N., et al, Adv. Cancer Res. 77, 1-24 (2000), the whole of which is incorporated herein by reference.
Cells (cell lines were 184B5, 184B5/HER, HCA7, HCT116, SKBR3 and BT474) were split into 6 well dishes and the next day were transiently transfected using 8 μg of LipofectAMlNE as per the manufacturer's instructions (Invitrogen, CA). 1.8 μg/dish of the wildtype Tcf/Lef reporter plasmid TOP flash or the mutant plasmid FOP flash was transfected into the cells and 0.2 μg of pSV-β-galactosidase. FOPflash differs from TOPflash by the mutation of its Tcf binding sites and serves to differentiate Tef/-catenin-mediated signaling from background (Upstate Biotechnology, Inc.). Cells were incubated overnight and were treated for 24 hours with either vehicle or test compound. Luciferase activity in the extracts was measured as described above and was corrected for background by subtraction of FOP-FLASH values from corresponding TOP-FLASH values.

Test [2] concerns HPV16 oncoproteins E6 and E7. The experiment in a line: Western and Northern blotting for HPV16 oncoproteins E6 and E7 (test (d)). It counts as cell-based, human papillomavirus. Particulars: for Test (d) at least 50% downregulation of expression of HPV16 oncoproteins E6 and E7: positive in CaSki and SiHa cells.
The test system of test [3] is Nrf-2. Nature of the test: Western and Northern blotting for expression of Nrf-2 (test (g)). Type of test: cell-based, human. To be noted: positive in 184B5, 184B5/HER, HCA7, HCT116, SKBR3, BT474 and CaSki cells. The procedure:
We turn now to criterion (g), i.e. at least 50% increase in expression of Nrf-2. […] 13, 2001).
(§1) Western blotting and Northern blotting techniques were used to evaluate the expression of Nrf-2. The expression of Nrf-2 was evaluated in HCA7, HCT116, SKBR3, CaSki, 184B5/HER, 184B5 and BT474 cells. 5×10^6cells were used to treat either vehicle alone or the test compound. The Western blotting analysis was performed as described above except anti-Nrf-2 antibody was used to probe the blot. The antibody was obtained from Santa Cruz Biotechnology, Inc. CA. Northern blotting for Nrf-2 was performed as described above and cDNA for Nrf-2 as described in Gong, P., et al., J.Biol Chem 20; 276:27018-27025 (2001) was used as a probe.

Test [4] relates to cyclin D1. Nature of the test: Western blotting for expression of cyclin D1 (test (c)). It counts as cell-based, human. Particulars: for Test (c) at least 50% downregulation of expression of cyclin D1: positive in 184B5, 184B5/HER cells, 24 h, Western blot. The procedure: Cyclin D1 is a protein that is important in regulating cell proliferation and is described in Ortega, S., et al, Biochimica et Biophysica Acta 1602, 73-87, (2002), the whole of which is incorporated by reference. […] Effects on expression of cyclin D1 was investigated in 184B5, 184B5/HER, HCA7, HCT116, SKBR3 and BT474 cells. The expression was assessed in cells after treatment with test compound or vehicle using 5×10^4 cells for 24 hours. Western blotting technique was used as follows to assess the expression levels of cyclin D1 in cells treated with the test compound and compared to levels in cells treated with vehicle alone. Cell lysates were prepared by treating cells with lysis buffer as described above. […] The resolved proteins were transferred onto nitrocellulose sheets. The nitrocellulose membrane was then incubated with anti-cyclin D1 antiserum. Secondary antibody to IgG conjugated to horseradish peroxidase was used. The various antisera were purchased from Santa Cruz Biotechnology, Inc., CA. The blots were probed with the Renaissance Western blot detection system according to the manufacturer's instructions (PerkinElmer Life Sciences, Boston, Mass.).
(In general: In western blotting, separated proteins are transferred to a membrane and probed.)

The subject of test [5] is PTEN. The experiment in a line: Western and Northern blotting for expression of PTEN (test (e)). Type of test: cell-based, human. Particulars: for Test (e) at least 50% increase in expression of PTEN: positive in 184B5, 184B5/HER, HCA7, HCT116, SKBR3 and BT474 cells. The procedure: We turn now to criterion (e), i.e., at least 50% increase in expression of PTEN.
PTEN is a tumor suppressor that inhibits cell proliferation and induces programmed cell death. PTEN (also know as MMAC-1 or TEP-1) is described in Yamada, K. M., et al, Journal of Cell Science 114, 2375-2382, the whole of which is incorporated herein by reference.
as §1, with “PTEN.” for “Nrf-2.”, “PTEN” for “Nrf-2”, “SKBR3,” for “SKBR3, CaSki,”, “anti-PTEN” for “anti-Nrf-2”, “Tamura, M.,” for “Gong, P.,”, “al, Science 5; 280 (5369):1614-1617 (1998),” for “al., J.Biol Chem 20; 276:27018-27025 (2001)”

Setting [6] is: 184B5 cells, 24 hours, Western blotting.

Where only a bound is given, the exact number is not on record here.

On to `Cc1ccc(-c2cc(C(F)(F)F)nn2-c2ccc(S(N)(=O)=O)cc2)cc1` [Celecoxib], for which the “Test (f) at least 50% inhibition of tcf/lef/β-catenin-mediated promoter activation” value in test [1] is recorded as “+ (A plus sign in the table indicates a positive result, that is meeting the test for each cell line as indicated above as providing a positive result)”. Besides, in test [2], the “Test (d) at least 50% downregulation of expression of HPV16 oncoproteins E6 and E7” value (“Test (d) at least 50% downregulation” below) was “+ (A plus sign in the table indicates a positive result, that is meeting the test for each cell line as indicated above as providing a positive result)”. In test [3], the “Test (g) at least 50% increase in expression of Nrf-2” value (“Test (g) at least 50% increase” for short) is given as “+ (A plus sign in the table indicates a positive result, that is meeting the test for each cell line as indicated above as providing a positive result)”. For the same compound, the “Test (c) at least 50% downregulation of expression of cyclin D1” value (“Test (c) at least 50% downregulation” for short) in test [4] is given as “+ (A plus sign in the table indicates a positive result, that is meeting the test for each cell line as indicated above as providing a positive result)”. Also, in test [5], the “Test (e) at least 50% increase in expression of PTEN” value (shortened to “Test (e) at least 50% increase”) was “+ (A plus sign in the table indicates a positive result, that is meeting the test for each cell line as indicated above as providing a positive result)”.

Consider `CCCCCCCOC(=O)Cc1c(C)n(C(=O)c2ccc(Cl)cc2)c2ccc(OC)cc12` [Indomethacin Analog 1, indomethacin heptyl ester], for which, in test [1], the “Test (f) at least 50% inhibition of tcf/lef/β-catenin-mediated promoter activation” value is “+ (A plus sign in the table indicates a positive result, that is meeting the test for each cell line as indicated above as providing a positive result)”. In test [2], the “Test (d) at least 50% downregulation” value is “+ (A plus sign in the table indicates a positive result, that is meeting the test for each cell line as indicated above as providing a positive result)”. Moreover, the “Test (g) at least 50% increase” value in test [3] was “+ (A plus sign in the table indicates a positive result, that is meeting the test for each cell line as indicated above as providing a positive result)”. For the same compound, in test [5], the “Test (e) at least 50% increase” value is listed as “+ (A plus sign in the table indicates a positive result, that is meeting the test for each cell line as indicated above as providing a positive result)”.

As to `COc1ccc(OC(=O)Cc2c(C)n(C(=O)c3ccc(Cl)cc3)c3ccc(OC)cc23)cc1` [Indomethacin Analog 3, 1-(p-chlorobenzoyl)-5-methoxy-2-methyl-1H-indole-3-acetic acid, 4-methoxyphenyl ester], in test [1], the “Test (f) at least 50% inhibition of tcf/lef/β-catenin-mediated promoter activation” value is given as “+ (A plus sign in the table indicates a positive result, that is meeting the test for each cell line as indicated above as providing a positive result)”. In addition, in test [3], the “Test (g) at least 50% increase” value is reported as “+ (A plus sign in the table indicates a positive result, that is meeting the test for each cell line as indicated above as providing a positive result)”.

In the case of `CS(=O)(=O)c1ccc(-n2nc(C(F)(F)F)cc2-c2ccc(F)cc2)cc1` [SC-58125, 4-[5-(4-fluorophenyl)-3-(trifluoromethyl)-1H-pyrazol-1-yl]benzenemethylsulfone], in test [1], the “Test (f) at least 50% inhibition of tcf/lef/β-catenin-mediated promoter activation” value is listed as “+ (A plus sign in the table indicates a positive result, that is meeting the test for each cell line as indicated above as providing a positive result)”. Moreover, the “Test (d) at least 50% downregulation” value in test [2] is “+ (A plus sign in the table indicates a positive result, that is meeting the test for each cell line as indicated above as providing a positive result)”. In addition, the “Test (g) at least 50% increase” value in test [3] is “+ (A plus sign in the table indicates a positive result, that is meeting the test for each cell line as indicated above as providing a positive result)”. For the same compound, the “Test (c) at least 50% downregulation” value in test [4] was “+ (A plus sign in the table indicates a positive result, that is meeting the test for each cell line as indicated above as providing a positive result)”. Further, in test [5], the “Test (e) at least 50% increase” value was “+ (A plus sign in the table indicates a positive result, that is meeting the test for each cell line as indicated above as providing a positive result)”.

Take `NS(=O)(=O)c1ccc(-n2nc(C(F)(F)F)cc2-c2ccc(Cl)cc2)cc1` [SC-236, 4-[5-(4-chlorophenyl)-3-(trifluoromethyl)-1H-pyrazol-1-yl]benzenesulfonamide]: the “Test (f) at least 50% inhibition of tcf/lef/β-catenin-mediated promoter activation” value in test [1] was “+ (A plus sign in the table indicates a positive result, that is meeting the test for each cell line as indicated above as providing a positive result)”. Besides, the “decrease in amounts of E6 mRNA” value in test [2] (CaSki cells, 24 hours, 0-5.0 μM, Northern blotting) is “greater than 50%”. Moreover, the “inhibition of HPV16 E7 protein” value in test [2] (CaSki cells, 24 hours, 0-5.0 μM, high concentration, Western blot) is given as “greater than 50%”. For the same compound, in test [2], the “Test (d) at least 50% downregulation” value is reported as “+ (A plus sign in the table indicates a positive result, that is meeting the test for each cell line as indicated above as providing a positive result)”. Further, the “Test (g) at least 50% increase” value in test [3] is “+ (A plus sign in the table indicates a positive result, that is meeting the test for each cell line as indicated above as providing a positive result)”. In test [4] (setting [6]), the “decrease in level of cyclin D1” value was “more than 50%”. For the same compound, the “Test (c) at least 50% downregulation” value in test [4] was “+ (A plus sign in the table indicates a positive result, that is meeting the test for each cell line as indicated above as providing a positive result)”. Moreover, the “increase in amounts of PTEN” value in test [5] (setting [6]) is recorded as over 100%. In test [5], the “Test (e) at least 50% increase” value is given as “+ (A plus sign in the table indicates a positive result, that is meeting the test for each cell line as indicated above as providing a positive result)”.
